In patent US10696691B2, “BACE1 inhibitors” (Hoffmann-La Roche Inc., priority 2015, dated 2020):

Assays:
[1] = biological target: T1, BACE1 (Homo sapiens, UniProt P56817); assay: Cellular Aβ-lowering assay (Abeta 40 AlphaLISA, HEK293 APP cells); format: cell-based; conditions: 18-20 hrs incubation, Aβ 40 in culture supernatants, read-out: BACE1 cell act. Aβ40 IC50
T1 construct: endogenous in cells; host or cells: HEK293 APP cells
Protocol: Cellular Aβ-Lowering Assay:
The Abeta 40 AiphaLISA Assay can be used. The HEK293 APP cells were seeded in 96 well Microtiter plates in cell culture medium (Iscove's, plus 10% (v/v) fetal bovine serum, penicillin/streptomycin) to about 80% confluency and the compounds were added at a 3× concentration in ⅓ volume of culture medium (final DMSO concentration was kept at 1% v/v). After 18-20 hrs incubation at 37° C. and 5% CO2 in a humidified incubator, the culture supernatants were harvested for the determination of Aβ 40 concentrations using Perkin-Elmer Human Amyloid beta 1-40 (high specificity) Kit (Cat # AL275C).
In a Perkin-Elmer White Optiplate-384 (Cat #6007290), 2 ul culture supernatants were combined with 2 μl of a 10× AlphaLISA Anti-hABAcceptor beads+Biotinylated Antibody Anti-AD 1-40 Mix (50 μg/mL/5 nM). After 1 hour room temperature incubation, 16 μl of a 1.25× preparation of Streptavidin (SA) Donor beads (25 μg/mL) were added and incubated for 30 minutes in the Dark. Light Emission at 615 nm was then recorded using EnVision-Alpha Reader. Levels of Aβ 40 in the culture supernatants were calculated as percentage of maximum signal (cells treated with 1% DMSO without inhibitor). The IC50 values were calculated using the Excel XLfit software.

[2] = test system: Aβ40; assay: Lowering of Aβ40 in brain of wild-type mice; format: in vivo; conditions: female C57Bl/6J mice, 30 mg/kg per os, 4 h, brain Aβ40 as percentage of the vehicle group; for response vs control in vivo at 30 mg/kg: Mus musculus, po, read-out: Aβ40 (wt mice, brain)
Protocol: Lowering of Aβ40 in Brain of Wild-Type Mice:
Animals and Housing Conditions.
Animals were maintained in a 12/12 h light/dark cycle, with lights starting at 6 a.m., and experiments were conducted during the light phase, Animal housing and experimental procedures were in line with ethical and legal guidelines and were authorized by local veterinary authorities.
Female C57Bl/6J mice were treated with a dose of 30 mg/kg of the compounds, 3-4 animals per treatment group. The test compound was dissolved in 5% EtOH, 10% Solutol, and was applied per os at 10 mL/kg. After 4 h, the animals were sacrificed and brain and plasma were collected. The brain was cut into halves and immediately frozen on dry ice. Brain was used for measurement of Aβ40 and plasma was used for determination of compound exposure. […] Brain tissue was homogenized in 2% DEA buffer in a Roche MagnaLyser (20″, 4000 rpm) and subsequently centrifuged for 1 h at 100000 g. DEA was reduced to 0.2% in 50 mM NaCl and one-half of the DEA lysate was passed over an Oasis Solid phase extraction plate (Waters; cat. no. 186000679), which had been activated with MeOH and equilibrated in dH2O (1 mL each). After washes in 10% and 30% MeOH (1 mL each), the Aβ-peptides were eluted in 0.8 mL of 2% NH4OH in 90% MeOH. The eluate was dried over a N2 flow, and the dried sample was reconstituted in 30 μL of AlphaLISA assay buffer. Aβ40 was determined by an AlphaLISA assay (Perkin-Elmer). In a white 96-well, half area microplate (Perkin-Elmer cat. no. 6005561), 20 μL of the reconstituted sample were mixed with 5 μL of biotinylated BAP-24 (specific for C-terminus of Aβ40) (Brockhaus, M.; Onmberg, J.; Rohrig, S.; Loetscher, H.; Wittenburg, N.; Baumeister, R.; Jacobsen, H.; Haass, C. Caspasemediated cleavage is not required for the activity of presenilins in amyloidogenesis and NOTCH signaling. NeuroReport 1998, 9, 1481-1486.) stock=4.4 mg/mL, f.c.5.5 μg/mL), and 5 μL 252Q6 acceptor beads (252Q6 antibody, Invitrogen AMB0062) had been previously conjugated with AlphaLISA Acceptor beads (Perkin-Elmer cat. no. 6772002); final dilution 1:500). The mix was incubated for 1 h at RT in the dark. Then 20 μL of Streptavin-coated Donor Beads (Perkin-Elmer cat. no. 6760002, final dilution 1:125) were added and this final mix was incubated in the dark for another 30 min at RT before RFU was measured in an AlphaScreen Reader (Perkin-Elmer Envision 2104). The value obtained for A40 in the treated animals was related to the value in the vehicle group and is given in %. Alternatively a commercial ELISA was used for Aβ40 determination (Wako ELISA: (“Human/Rat 3 Amyloid (40) ELISA kit Wako II”; cat nr. 294-64701) following the manufacture's instruction. Also here the Aβ-lowering efficacy was calculated as percentage of the vehicle group.

T1 sequence (P56817 46-501): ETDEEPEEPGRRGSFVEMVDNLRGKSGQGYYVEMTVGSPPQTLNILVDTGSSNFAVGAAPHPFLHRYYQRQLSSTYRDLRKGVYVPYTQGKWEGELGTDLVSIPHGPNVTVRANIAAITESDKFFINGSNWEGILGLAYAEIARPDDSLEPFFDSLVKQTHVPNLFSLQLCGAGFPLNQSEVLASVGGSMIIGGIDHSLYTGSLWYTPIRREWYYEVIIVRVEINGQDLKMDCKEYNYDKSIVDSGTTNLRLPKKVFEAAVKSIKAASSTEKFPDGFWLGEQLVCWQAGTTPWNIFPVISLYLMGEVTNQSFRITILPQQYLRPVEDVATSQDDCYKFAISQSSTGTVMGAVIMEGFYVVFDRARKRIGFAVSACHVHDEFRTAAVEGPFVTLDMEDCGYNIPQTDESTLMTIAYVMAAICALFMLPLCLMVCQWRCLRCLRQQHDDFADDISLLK

Row | IC50 [1] [nM] | Structure (SMILES) | response vs control in vivo at 30 mg/kg [2] [%] | Aβ40 (wt mice, brain) [2] [%]
1 | 0.5 | CCOc1ccc(C(=O)Nc2ccc(F)c([C@@]3(C)N=C(N)C(C)(C)[S@@]4(=O)=NCC[C@@H]34)c2)nc1 [Example 25AB, N-(3-((3aS,4R,8R)-6-amino-4,7,7-trimethyl-8-oxido-3,3a,4,7-tetrahydro-2H-isothiazolo[1,5-a][1,4]thiazin-4-yl)-4-fluorophenyl)-5-ethoxypicolinamide] | 40 | 
2 | 0.4 | CCOc1cnc(C(=O)Nc2ccc(F)c([C@@]3(C)N=C(N)C(C)(C)[S@@]4(=O)=NCC[C@@H]34)c2)cn1 [Example 27AB, N-(3-((3aS,4R,8R)-6-amino-4,7,7-trimethyl-8-oxido-3,3a,4,7-tetrahydro-2H-isothiazolo[1,5-a][1,4]thiazin-4-yl)-4-fluorophenyl)-5-ethoxypyrazine-2-carboxamide] | 9 | 
3 | 0.6 | COc1cnc(C(=O)Nc2ccc(F)c([C@@]3(C)N=C(N)C(C)(C)[S@@]4(=O)=NCC[C@@H]34)c2)c(C)c1 [Example 26AB, N-(3-((3aS,4R,8R)-6-amino-4,7,7-trimethyl-8-oxido-3,3a,4,7-tetrahydro-2H-isothiazolo[1,5-a][1,4]thiazin-4-yl)-4-fluorophenyl)-5-methoxy-3-methylpicolinamide] | 11 | 
4 | 0.3 | CC1(C)C(N)=N[C@](C)(c2cc(NC(=O)c3ccc(F)cn3)ccc2F)[C@@H]2CCN=[S@@]21=O [Example 17AB, N-(3-((3aS,4R,8R)-6-amino-4,7,7-trimethyl-8-oxido-3,3a,4,7-tetrahydro-2H-isothiazolo[1,5-a][1,4]thiazin-4-yl)-4-fluorophenyl)-5-fluoropicolinamide] | 40 | 
5 | 0.2 | CC1(C)C(N)=N[C@](C)(c2cc(NC(=O)c3cnc(OC(F)F)cn3)ccc2F)[C@@H]2CCN=[S@@]21=O [Example 15AB, N-(3-((3aS,4R,8R)-6-amino-4,7,7-trimethyl-8-oxido-3,3a,4,7-tetrahydro-2H-isothiazolo[1,5-a][1,4]thiazin-4-yl)-4-fluorophenyl)-5-(difluoromethoxy)pyrazine-2-carboxamide] | 20 | 
6 | 0.2 | CC1(C)C(N)=N[C@](C)(c2cc(NC(=O)c3cnc(OCC(F)(F)C(F)F)cn3)ccc2F)[C@@H]2CCN=[S@@]21=O [Example 22AB, N-(3-((3aS,4R,8R)-6-amino-4,7,7-trimethyl-8-oxido-3,3a,4,7-tetrahydro-2H-isothiazolo[1,5-a][1,4]thiazin-4-yl)-4-fluorophenyl)-5-(2,2,3,3-tetrafluoropropoxy)pyrazine-2-carboxamide] |  | 51

Second part, the compound before the results:

Row | Structure (SMILES) | IC50 [1] [nM] | response vs control in vivo at 30 mg/kg [2] [%] | Aβ40 (wt mice, brain) [2] [%]
7 | COc1cnc(C(=O)Nc2ccc(F)c([C@@]3(C)N=C(N)C(C)(C)[S@@]4(=O)=NCC[C@@H]34)c2)cn1 [Example 14AB, N-(3-((3aS,4R,8R)-6-amino-4,7,7-trimethyl-8-oxido-3,3a,4,7-tetrahydro-2H-isothiazolo[1,5-a][1,4]thiazin-4-yl)-4-fluorophenyl)-5-methoxypyrazine-2-carboxamide] | 0.5 | 3 | 
8 | CC1(C)C(N)=N[C@](C)(c2cc(NC(=O)c3cnc(OCC(F)F)cn3)ccc2F)[C@@H]2CCN=[S@@]21=O [Example 7AB, N-(3-((3aS,4R,8R)-6-amino-4,7,7-trimethyl-8-oxido-3,3a,4,7-tetrahydro-2H-isothiazolo[1,5-a][1,4]thiazin-4-yl)-4-fluorophenyl)-5-(2,2-difluoroethoxy)pyrazine-2-carboxamide] | 0.4 | 42 | 
9 | CC1(C)C(N)=N[C@](C)(c2cc(NC(=O)c3ncc(OC(F)F)cc3Cl)ccc2F)[C@@H]2CCN=[S@@]21=O [Example 13AB, N-(3-((3aS,4R,8R)-6-amino-4,7,7-trimethyl-8-oxido-3,3a,4,7-tetrahydro-2H-isothiazolo[1,5-a][1,4]thiazin-4-yl)-4-fluorophenyl)-3-chloro-5-(difluoromethoxy)picolinamide] | 0.3 | 39 | 
10 | Cc1cc(C#N)cnc1C(=O)Nc1ccc(F)c([C@@]2(C)N=C(N)C(C)(C)[S@@]3(=O)=NCC[C@@H]23)c1 [Example 1AB, N-(3-((3aS,4R,8R)-6-amino-4,7,7-trimethyl-8-oxido-3,3a,4,7-tetrahydro-2H-isothiazolo[1,5-a][1,4]thiazin-4-yl)-4-fluorophenyl)-5-cyano-3-methylpicolinamide] | 0.09 | 14 | 
11 | CC1(C)C(N)=N[C@](C)(c2cc(NC(=O)c3ccc(C#N)cc3Cl)ccc2F)[C@@H]2CCN=[S@@]21=O [Example 4AB, N-(3-((3aS,4R,8R)-6-amino-4,7,7-trimethyl-8-oxido-3,3a,4,7-tetrahydro-2H-isothiazolo[1,5-a][1,4]thiazin-4-yl)-4-fluorophenyl)-2-chloro-4-cyanobenzamide] | 13.1 | 102 | 
12 | Cc1cc(C#N)cnc1C(=O)Nc1ccc(F)c([C@@]2(C)N=C(N)C(C)(C)[S@]3(=O)=NCC[C@H]23)c1 [Example 1BA, N-(3-((3aR,4R,8S)-6-amino-4,7,7-trimethyl-8-oxido-3,3a,4,7-tetrahydro-2H-isothiazolo[1,5-a][1,4]thiazin-4-yl)-4-fluorophenyl)-5-cyano-3-methylpicolinamide] | 3.6 | 73 | 
13 | CC1(C)C(N)=N[C@](C)(c2cc(NC(=O)c3ncc(C#N)cc3Cl)ccc2F)[C@@H]2CCN=[S@@]21=O [Example 2AB, N-(3-((3aS,4R,8R)-6-amino-4,7,7-trimethyl-8-oxido-3,3a,4,7-tetrahydro-2H-isothiazolo[1,5-a][1,4]thiazin-4-yl)-4-fluorophenyl)-3-chloro-5-cyanopicolinamide] | 1 | 80 | 
14 | CC1(C)C(N)=N[C@](C)(c2cc(NC(=O)c3ncc(Cl)cc3Cl)ccc2F)[C@@H]2CCN=[S@@]21=O [Example 3AB, N-(3-((3aS,4R,8R)-6-amino-4,7,7-trimethyl-8-oxido-3,3a,4,7-tetrahydro-2H-isothiazolo[1,5-a][1,4]thiazin-4-yl)-4-fluorophenyl)-3,5-dichloropicolinamide] | 1 | 49 | 
